16 molecules from patent US9073855B2, “BCL-2 selective apoptosis-inducing agents for the treatment of cancer and immune diseases” (AbbVie Inc., priority 2008, dated 2015) can be followed below.

One test has as its target GST-Bcl-2 (Homo sapiens, UniProt P10415). The test can be described thus: TR-FRET binding assay, GST-Bcl-2 with F-Bak peptide probe. The conditions noted are these: for Ki: TR-FRET Binding Affinity, GST-Bcl-2, F-Bak peptide probe; for Binding selectivity ratio (Bcl-XL Ki/Bcl-2 Ki): ratio of TR-FRET Ki values, Bcl-XL over Bcl-2. Summed up: (§1)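 Competitive TR-FRET: GST-fusion protein, fluorescent Bak peptide probe and Tb-labelled anti-GST antibody incubated with compound dilution series (starting 50 μM as 2× stock, 10% DMSO) for 3 h at RT. Excitation 340/35 nm; Ki derived via Wang's exact competitive-binding equation.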

For the next test, the system named is FL5.12/Bcl-2 cells. The test can be described thus: FL5.12/Bcl-2 cell viability assay under IL-3 withdrawal (CellTitre Glo). In kind it is cell-based, murine. The conditions noted are these: Mus musculus, IL-3 withdrawn 48 hrs, then 24 hrs with compound. An outline of the steps: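 Murine IL-3-dependent FL5.12 cells stably overexpressing Bcl-2 were deprived of IL-3 (WEHI-3B conditioned medium) for 48 h, then exposed to various compound concentrations for 24 h at 37 °C. Viability read by CellTiter-Glo luminescence.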

For another test, the target named is GST-Bcl-XL (Homo sapiens, UniProt Q07817). The test can be described thus: TR-FRET binding assay, GST-Bcl-XL with F-Bak peptide probe. The conditions noted are these: TR-FRET Binding Affinity, GST-Bcl-XL, F-Bak peptide probe. An outline of the steps: as §1
For orientation: TR-FRET usually uses a lanthanide donor and a delayed reading to cut background.

Some results are limits rather than exact numbers.

Sequence of GST-Bcl-XL (Q07817 whole entry): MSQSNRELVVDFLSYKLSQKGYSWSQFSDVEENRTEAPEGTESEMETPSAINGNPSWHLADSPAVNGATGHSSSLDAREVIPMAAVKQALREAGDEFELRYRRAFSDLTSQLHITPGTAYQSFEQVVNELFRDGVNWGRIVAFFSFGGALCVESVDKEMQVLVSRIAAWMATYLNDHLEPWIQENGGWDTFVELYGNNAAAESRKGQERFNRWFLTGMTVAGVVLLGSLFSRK
Sequence of GST-Bcl-2 (P10415 whole entry, the tested form may be a part): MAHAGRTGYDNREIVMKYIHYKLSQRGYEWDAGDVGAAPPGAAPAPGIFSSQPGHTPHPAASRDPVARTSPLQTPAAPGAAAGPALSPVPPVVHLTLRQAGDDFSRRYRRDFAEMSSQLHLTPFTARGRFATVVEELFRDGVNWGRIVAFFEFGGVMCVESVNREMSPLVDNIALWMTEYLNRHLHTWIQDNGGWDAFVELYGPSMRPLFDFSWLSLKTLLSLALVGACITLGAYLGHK

As for `CC1(C)CCC(CN2CCN(c3ccc(C(=O)NS(=O)(=O)c4cc(F)c(NCC5CCOCC5)cc4Cl)c(Oc4ccc5[nH]ccc5c4)c3)CC2)=C(c2ccc(Cl)cc2)C1` [Example 379, N-({2-chloro-5-fluoro-4-[(tetrahydro-2H-pyran-4-ylmethyl)amino]phenyl}sulfonyl)-4-(4-{[2-(4-chlorophenyl)-4,4-dimethylcyclohex-1-en-1-yl]methyl}piperazin-1-yl)-2-(1H-indol-5-yloxy)benzamide], the Ki was 256 nM on GST-Bcl-2 and more than 660 nM on GST-Bcl-XL. In addition, the EC50 with FL5.12/Bcl-2 cells is more than 500 nM.
On to `COCCOCCSc1ccc(S(=O)(=O)NC(=O)c2ccc(N3CCN(CC4=C(c5ccc(Cl)cc5)CC(C)(C)CC4)CC3)cc2Oc2ccc3[nH]ccc3c2)cc1[N+](=O)[O-]` [Example 380, 4-(4-{[2-(4-chlorophenyl)-4,4-dimethylcyclohex-1-en-1-yl]methyl}piperazin-1-yl)-2-(1H-indol-5-yloxy)-N-[(4-{[2-(2-methoxyethoxy)ethyl]thio}-3-nitrophenyl)sulfonyl]benzamide], for which the Ki on GST-Bcl-2 came to 0.083 nM; at GST-Bcl-XL it was 175 nM. Besides, in the test on FL5.12/Bcl-2 cells, the EC50 came to 68.5 nM.
Turning to `COCCOCCSc1ccc(S(=O)(=O)NC(=O)c2ccc(N3CCN(CC4=C(c5ccc(Cl)cc5)CC(C)(C)CC4)CC3)cc2Oc2cccc3[nH]ccc23)cc1[N+](=O)[O-]` [Example 381, 4-(4-{[2-(4-chlorophenyl)-4,4-dimethylcyclohex-1-en-1-yl]methyl}piperazin-1-yl)-2-(1H-indol-4-yloxy)-N-[(4-{[2-(2-methoxyethoxy)ethyl]thio}-3-nitrophenyl)sulfonyl]benzamide], the Ki at GST-Bcl-2 was 0.054 nM; at GST-Bcl-XL, 24.2 nM. Moreover, the EC50 in the test with FL5.12/Bcl-2 cells turned out to be 71.8 nM.
As to `CC1(C)CCC(CN2CCN(c3ccc(C(=O)NS(=O)(=O)c4ccc(S(C)(=O)=O)cc4)c(Oc4ccc5[nH]ccc5c4)c3)CC2)=C(c2ccc(Cl)cc2)C1` [Example 382, 4-(4-{[2-(4-chlorophenyl)-4,4-dimethylcyclohex-1-en-1-yl]methyl}piperazin-1-yl)-2-(1H-indol-5-yloxy)-N-{[4-(methylsulfonyl)phenyl]sulfonyl}benzamide], the Ki at GST-Bcl-2 was 1.15 nM; at GST-Bcl-XL it was more than 660 nM. Moreover, the EC50 in the test with FL5.12/Bcl-2 cells is more than 500 nM.
`CC1(C)CCC(CN2CCN(c3ccc(C(=O)NS(=O)(=O)c4ccc(S(C)(=O)=O)cc4)c(Oc4cccc5[nH]ccc45)c3)CC2)=C(c2ccc(Cl)cc2)C1` [Example 383, 4-(4-{[2-(4-chlorophenyl)-4,4-dimethylcyclohex-1-en-1-yl]methyl}piperazin-1-yl)-2-(1H-indol-4-yloxy)-N-{[4-(methylsulfonyl)phenyl]sulfonyl}benzamide]: the figures for the Ki at GST-Bcl-2 and at GST-Bcl-XL were 2.17 nM and more than 660 nM, respectively. Moreover, the EC50 with FL5.12/Bcl-2 cells was more than 500 nM.
As to `CC1(C)CCC(CN2CCN(c3ccc(C(=O)NS(=O)(=O)c4ccc(OCC5CCOC(C)(C)C5)c([N+](=O)[O-])c4)c(Oc4ccc5[nH]ccc5c4)c3)CC2)=C(c2ccc(Cl)cc2)C1` (stereo not drawn) [Example 384, 4-(4-{[2-(4-chlorophenyl)-4,4-dimethylcyclohex-1-en-1-yl]methyl}piperazin-1-yl)-N-({4-[(2,2-dimethyltetrahydro-2H-pyran-4-yl)methoxy]-3-nitrophenyl}sulfonyl)-2-(1H-indol-5-yloxy)benzamide], the inhibition constant (Ki) at GST-Bcl-2 is 0.076 nM; at GST-Bcl-XL it was more than 660 nM. In addition, the half-maximal effective concentration (EC50) in the test with FL5.12/Bcl-2 cells came to 101 nM.
For `CC1(C)CCC(CN2CCN(c3ccc(C(=O)NS(=O)(=O)c4cnc(OCC5(F)CCOCC5)c(C#N)c4)c(Oc4ccc5[nH]ccc5c4)c3)CC2)=C(c2ccc(Cl)cc2)C1` [Example 385, 4-(4-{[2-(4-chlorophenyl)-4,4-dimethylcyclohex-1-en-1-yl]methyl}piperazin-1-yl)-N-({5-cyano-6-[(4-fluorotetrahydro-2H-pyran-4-yl)methoxy]pyridin-3-yl}sulfonyl)-2-(1H-indol-5-yloxy)benzamide], the Ki at GST-Bcl-2 came to 0.062 nM; on GST-Bcl-XL, 130 nM. Moreover, the EC50 with FL5.12/Bcl-2 cells was 56.4 nM.
For `CC1(C)CCC(CN2CCN(c3ccc(C(=O)NS(=O)(=O)c4cnc(OCC5CCOCC5)c(C#N)c4)c(Oc4cccc5[nH]ccc45)c3)CC2)=C(c2ccc(Cl)cc2)C1` [Example 386, 4-(4-{[2-(4-chlorophenyl)-4,4-dimethylcyclohex-1-en-1-yl]methyl}piperazin-1-yl)-N-{[5-cyano-6-(tetrahydro-2H-pyran-4-ylmethoxy)pyridin-3-yl]sulfonyl}-2-(1H-indol-4-yloxy)benzamide] the same measures were 0.239 nM, 118 nM and 154 nM.
With `CC1(C)CCC(CN2CCN(c3ccc(C(=O)NS(=O)(=O)c4cnc(OCC5CCOCC5)c(Cl)c4)c(Oc4cccc5[nH]ccc45)c3)CC2)=C(c2ccc(Cl)cc2)C1` [Example 387, 4-(4-{[2-(4-chlorophenyl)-4,4-dimethylcyclohex-1-en-1-yl]methyl}piperazin-1-yl)-N-{[5-chloro-6-(tetrahydro-2H-pyran-4-ylmethoxy)pyridin-3-yl]sulfonyl}-2-(1H-indol-4-yloxy)benzamide], the inhibitory constant (Ki) on GST-Bcl-2 was found to be 0.162 nM; at GST-Bcl-XL, 280 nM. For the same molecule, in the test on FL5.12/Bcl-2 cells, the EC50 worked out at 86.5 nM.
Consider `CC1(C)CCC(CN2CCN(c3ccc(C(=O)NS(=O)(=O)c4cnc(OCCN5CCOCC5)c(C#N)c4)c(Oc4ccc5[nH]ccc5c4)c3)CC2)=C(c2ccc(Cl)cc2)C1` [Example 388, 4-(4-{[2-(4-chlorophenyl)-4,4-dimethylcyclohex-1-en-1-yl]methyl}piperazin-1-yl)-N-{[5-cyano-6-(2-morpholin-4-ylethoxy)pyridin-3-yl]sulfonyl}-2-(1H-indol-5-yloxy)benzamide], for which the Ki on GST-Bcl-2 worked out at 0.188 nM; at GST-Bcl-XL it was 34.8 nM. For the same molecule, the EC50 in the test on FL5.12/Bcl-2 cells is 82.9 nM.
Consider `CC1(C)CCC(CN2CCN(c3ccc(C(=O)NS(=O)(=O)c4ccc(OC5CCN(C6CCOCC6)CC5)c([N+](=O)[O-])c4)c(Oc4ccc5[nH]ccc5c4)c3)CC2)=C(c2ccc(Cl)cc2)C1` [Example 389, 4-(4-{[2-(4-chlorophenyl)-4,4-dimethylcyclohex-1-en-1-yl]methyl}piperazin-1-yl)-2-(1H-indol-5-yloxy)-N-({3-nitro-4-[(1-tetrahydro-2H-pyran-4-ylpiperidin-4-yl)oxy]phenyl}sulfonyl)benzamide], for which the inhibitory constant (Ki) at GST-Bcl-2 was found to be 0.098 nM; on GST-Bcl-XL, 67.2 nM. Besides, the half-maximal effective concentration (EC50) with FL5.12/Bcl-2 cells turned out to be 28.1 nM.
With `CC1(C)CCC(CN2CCN(c3ccc(C(=O)NS(=O)(=O)c4ccc(OCC#CCN5CCOCC5)c([N+](=O)[O-])c4)c(Oc4ccc5[nH]ccc5c4)c3)CC2)=C(c2ccc(Cl)cc2)C1` [Example 390, 4-(4-{[2-(4-chlorophenyl)-4,4-dimethylcyclohex-1-en-1-yl]methyl}piperazin-1-yl)-2-(1H-indol-5-yloxy)-N-({4-[(4-morpholin-4-ylbut-2-ynyl)oxy]-3-nitrophenyl}sulfonyl)benzamide], the inhibition constant (Ki) was 0.341 nM on GST-Bcl-2 and 116 nM at GST-Bcl-XL. For the same molecule, in the test with FL5.12/Bcl-2 cells, the EC50 came to 41.2 nM.
On to `C#Cc1cc(S(=O)(=O)NC(=O)c2ccc(N3CCN(CC4=C(c5ccc(Cl)cc5)CC(C)(C)CC4)CC3)cc2Oc2cccc3[nH]ccc23)cnc1OCC1CCOCC1` [Example 391, 4-(4-{[2-(4-chlorophenyl)-4,4-dimethylcyclohex-1-en-1-yl]methyl}piperazin-1-yl)-N-{[5-ethynyl-6-(tetrahydro-2H-pyran-4-ylmethoxy)pyridin-3-yl]sulfonyl}-2-(1H-indol-4-yloxy)benzamide], for which the inhibition constant Ki on GST-Bcl-2 was 3.54 nM; on GST-Bcl-XL, more than 660 nM. The 50% effective concentration (EC50) with FL5.12/Bcl-2 cells is more than 500 nM.
Turning to `CN1CCC(Nc2ccc(S(=O)(=O)NC(=O)c3ccc(N4CCN(CC5=C(c6ccc(Cl)cc6)CC(C)(C)CC5)CC4)cc3Nc3cccnc3)cc2[N+](=O)[O-])CC1` [Example 396, 4-(4-{[2-(4-chlorophenyl)-4,4-dimethylcyclohex-1-en-1-yl]methyl}piperazin-1-yl)-N-({4-[(1-methylpiperidin-4-yl)amino]-3-nitrophenyl}sulfonyl)-2-(pyridin-3-ylamino)benzamide], the values for the Ki at GST-Bcl-2 and at GST-Bcl-XL were 116 nM and more than 660000 nM, respectively. On GST-Bcl-2, the “Binding selectivity ratio (Bcl-XL Ki/Bcl-2 Ki)” value is recorded as more than 5705.9. The concentration giving a half-maximal response (EC50) in the test with FL5.12/Bcl-2 cells was more than 500 nM.
On to `CC1(C)CCC(CN2CCN(c3ccc(C(=O)NS(=O)(=O)c4ccc(NC5CCN(C6CCOCC6)CC5)c([N+](=O)[O-])c4)c(Oc4cccnc4)c3)CC2)=C(c2ccc(Cl)cc2)C1` [Example 398, 4-(4-{[2-(4-chlorophenyl)-4,4-dimethylcyclohex-1-en-1-yl]methyl}piperazin-1-yl)-N-({3-nitro-4-[(1-tetrahydro-2H-pyran-4-ylpiperidin-4-yl)amino]phenyl}sulfonyl)-2-(pyridin-3-yloxy)benzamide], for which, at GST-Bcl-2, the inhibition constant (Ki) came to 1.23 nM and the “Binding selectivity ratio (Bcl-XL Ki/Bcl-2 Ki)” value was 67.7. In the test on FL5.12/Bcl-2 cells, the 50% effective concentration (EC50) was found to be 334 nM. The molecule further showed an inhibitory constant (Ki) at GST-Bcl-XL of 83.4 nM.
For `CC1(C)CCC(CN2CCN(c3ccc(C(=O)NS(=O)(=O)c4ccc(NCC5CCOCC5)c([N+](=O)[O-])c4)c(Oc4cccc5c4CCNC5)c3)CC2)=C(c2ccc(Cl)cc2)C1` [Example 399, 4-(4-{[2-(4-chlorophenyl)-4,4-dimethylcyclohex-1-en-1-yl]methyl}piperazin-1-yl)-N-({3-nitro-4-[(tetrahydro-2H-pyran-4-ylmethyl)amino]phenyl}sulfonyl)-2-(1,2,3,4-tetrahydroisoquinolin-5-yloxy)benzamide] the same measures were 2.92 nM, more than 225764.5, more than 500 nM and more than 660000 nM.

For orientation: Ki means a dissociation constant, usually derived from enzyme kinetics or from competition with a known ligand. As usually defined, the EC50 is the concentration giving half of the maximal effect.
